Measurements reported in patent US9586928B2 (The Scripps Research Institute, priority 2011, dated 2017).

What was measured:
RORα [1] = target: T1, RORα (Homo sapiens, UniProt P35398); experiment: Gal4-RORα LBD / UAS luciferase cotransfection assay; format: cell-based; details: Gal4 chimeric cotransfection
T1 construct: expressed in transfected cells; host or cells: HEK293T
T1 sequence (P35398 272-510 limits assumed): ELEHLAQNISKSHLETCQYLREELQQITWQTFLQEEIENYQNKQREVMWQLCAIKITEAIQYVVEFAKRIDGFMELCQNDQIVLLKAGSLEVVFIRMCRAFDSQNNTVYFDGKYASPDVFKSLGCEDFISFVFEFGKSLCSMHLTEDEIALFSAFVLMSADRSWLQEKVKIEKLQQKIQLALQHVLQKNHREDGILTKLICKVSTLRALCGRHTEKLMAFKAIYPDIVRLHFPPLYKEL
Description: The cells were treated with either DMSO or various compounds as indicated four hours after replating. Following additional 20 hour incubation, luciferase levels were assayed by one-step addition of 20 μL BriteLite (Perkin Elmer) and read using an Envision multilabel plate reader (Perkin Elmer).
Cotransfection assays were performed as previously described in HEK293 cells (Gal4 cotransfection assay or IL-17 luciferase reporter)[8]. HEK293 and the mouse lymphoma EL4 (ATCC) cells were maintained in DMEM supplemented with 10% FBS plus antibiotics (penicillin and streptomycin; Invitrogen).

LXR = target: T2, LXR (Homo sapiens, UniProt Q13133); experiment: Gal4-LXRα / UAS luciferase cotransfection assay; format: cell-based
T2 sequence (Q13133 209-447 limits assumed): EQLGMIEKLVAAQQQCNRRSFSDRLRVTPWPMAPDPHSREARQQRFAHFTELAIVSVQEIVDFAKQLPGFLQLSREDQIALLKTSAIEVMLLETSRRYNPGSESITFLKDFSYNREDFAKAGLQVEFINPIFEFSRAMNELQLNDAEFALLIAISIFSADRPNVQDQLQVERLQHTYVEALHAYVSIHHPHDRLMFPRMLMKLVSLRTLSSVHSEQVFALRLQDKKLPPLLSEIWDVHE

RORα [2] = target: T3, RORα (Homo sapiens, UniProt P35398); experiment: IL-17 promoter luciferase reporter with full-length RORα; format: cell-based
T3 sequence (P35398 1-523): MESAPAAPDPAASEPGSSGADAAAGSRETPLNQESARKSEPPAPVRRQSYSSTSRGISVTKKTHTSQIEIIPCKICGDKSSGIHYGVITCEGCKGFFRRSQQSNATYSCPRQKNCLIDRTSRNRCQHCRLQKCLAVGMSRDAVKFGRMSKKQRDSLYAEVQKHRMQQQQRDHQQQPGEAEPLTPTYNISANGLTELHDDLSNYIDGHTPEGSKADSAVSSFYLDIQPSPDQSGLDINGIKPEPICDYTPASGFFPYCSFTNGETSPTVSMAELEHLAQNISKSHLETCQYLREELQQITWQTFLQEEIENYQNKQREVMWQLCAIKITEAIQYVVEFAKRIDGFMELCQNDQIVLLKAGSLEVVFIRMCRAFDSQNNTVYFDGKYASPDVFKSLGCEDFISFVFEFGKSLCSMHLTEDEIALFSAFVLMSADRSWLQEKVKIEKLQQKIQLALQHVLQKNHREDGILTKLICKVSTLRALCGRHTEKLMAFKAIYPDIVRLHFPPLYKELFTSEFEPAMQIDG
Source text: Since RORα and RORγ are critical regulators of IL-17 gene expression, we examined whether SR1555 would affect RORα and RORγ-dependent regulation of an IL-17 promoter driven luciferase reporter construct. HEK293 cells were transiently transfected with an IL-17 reporter, either full-length RORα or RORγ, and treated with an increasing concentration of SR1555[8]. In a dose dependent manner, SR1555 suppressed IL-17 promoter driven activity by RORγ but not RORα, further confirming that SR1555 is indeed a RORγ-specific inverse agonist (FIG. 1d). Finally, using EL4 cells, a murine thymoma which endogenously express RORα, RORγ t, and IL-17A, we examined whether SR1555 affected endogenous IL-17 gene expression. EL4 cells were treated with DMSO or SR1555 for 24 hours and analyzed for Il17a gene expression by quantitative real-time PCR.
Cotransfection assays were performed as previously described in HEK293 cells (Gal4 cotransfection assay or IL-17 luciferase reporter)[8]. […]
HEK293 cells were maintained in Dulbecco's modified Eagle's medium (DMEM) supplemented with 10% fetal bovine serum at 37° C. under 5% CO2. […] The luciferase levels were assayed following additional 20 hour incubation by one-step addition of BriteLite Plus (Perkin Elmer) and read using an Envision (Perkin Elmer). […]

T regulatory cells = experiment: T regulatory cell differentiation of splenocytes (RTPCR, Foxp3 FACS); format: cell-based, murine
Description: Therefore, the environmental cues associated with the concentration of TGF[…] dictates the balance between TH17 and T regulatory cell differentiation. In light of the reciprocal relationship between these two cell types, we assessed whether SR1555 affected the development of T regulatory cells in vitro. Splenocytes were cultured under T regulatory cell polarizing conditions (TGFβ and IL-2) for 3 days. […] To determine whether the gene expression data would correlate with protein expression, we again cultured splenocytes for 5 days under T regulatory cell polarizing conditions in the presence of DMSO or SR1555 and examined the expression of Foxp3 by intracellular cytokine FACS analysis.
Splenocytes were differentiated under the following conditions: iTreg-10 μg/mL anti-IFNγ, 10 μg/mL anti-IL-4, and 2 ng/mL TGFβ (R&D Systems); 20 ug/mL anti-IFNγ, 20 ug/mL anti-IL-4, 1 ng/mL TGFβ, and 10 ng/mL IL-6 (R&D Systems) for TH17 conditions. All cultures were stimulated with 1 μg/mL anti-CD3 (eBiosciences) and 1 μg/mL anti-CD28 (eBiosciences). Four to five days after activation, all cells were restimulated with 5 ng/mL phorbol-12-myristate-13-acetate (PMA) (Sigma) and 500 ng/mL ionomycin (Sigma) for 2 hours with the addition of GolgiStop (BD Bioscience) for an additional 2 hours before intracellular staining. Cells were cultured in RPMI 1640 medium (Invitrogen) with 10% FBS and antibiotics.
RNA extraction and QRT-PCR analysis was performed as previously described.

OC(c1ccc(-c2ccc(CN3CCN(Cc4ccncc4)CC3)cc2)c(F)c1)(C(F)(F)F)C(F)(F)F [SR2211, 1,1,1,3,3,3-hexafluoro-2-(2-fluoro-4′-((4-(pyridin-4-ylmethyl)piperazin-1-yl)methyl)-[1,1′-biphenyl]-4-yl)propan-2-ol]
effect on transcriptional activity of RORα (RORα [1]): did not have any impact on the transcriptional activity of RORα | right shift of EC50 on LXRα (LXR): more than 100 fold | effect on LXR activity (LXR; Gal4 chimeric cotransfection): minimal activation of LXRα | activation of LXRα as compared to T1317 (LXR; highest concentration tested): less than 5% | IL-17 promoter driven activity by RORα (RORα [2]): did not alter the transcription driven by the Il17 promoter | T regulatory cell proliferation (T regulatory cells): does not alter T regulatory cell proliferation
